{"source": "patent US6696468B2", "about": "“(S)-4-AMINO-5-CHLORO-2-METHOXY-N-[1-[1-(2-TETRAHYDROFURYL-CARBONYL)-4-[…]]-4-[…]]BENZAMIDE, PROCESS FOR THE PREPARATION THEREOF, PHARMACEUTICAL COMPOSITION CONTAINING THE SAME, AND INTERMEDIATE THEREFOR” (priority 2002, dated 2004)", "key": {"[1]": {"tested_on": "guinea pigs of Std-Hartley strain", "experiment": "Effect on electrocardiogram in guinea pigs (QTc)", "assay_type": "in vivo, guinea pig", "settings": "anesthetized guinea pigs, iv infusion for 15 minutes, maximum dose 30 mg/kg", "procedure": "Male guinea pigs of Std-Hartley strain weighing 350-500 g were anesthetized with urethan (1.5 g/kg, ip). […] RR (second): time from the peak of R-wave to the peak of the next R-wave in electrocardiogram (usually, expressed by “second”). […] Consequently, as an index for evaluating the effects on the heart, a dose to be required to prolong the QTc intervals by 5% of the electrocardiogram (ED5%) in guinea pigs was measured, which has widely been used."}, "[2]": {"tested_on": "colon of Beagle dogs", "experiment": "Gastrointestinal motility activity in conscious dog", "assay_type": "in vivo", "settings": "within 2 hours after administration", "text": "Beagle dogs of a male were anesthetized with pentobarbital, and the abdominal cavity was opened, and force transducers (F-121S; manufactured by Star Medical Inc.) were sutured onto the seromuscular layer of the colon to make it possible to measure circular muscle contractions. Three or four force transducer were sutured onto in the colon from the lower part to the upper part at regular intervals. The lead wires from the transducers were brought out outside the body through a skin incision made between the scapulae, and were protected in a package of a jacket protector. The gastrointestinal motility activity was measured 2 or 3 weeks after the operation. The lead wires from the force transducers were connected with a telemeter system (DAS-800T: manufactured by Star Medical Inc.), and the gastrointestinal motility activity was analyzed by a personal computer system being connected therewith and recorded. A test compound was suspended in a 0.5% tragacanth solution, and administered via a cannula to be placed in the stomach to the dogs, which were one hour or more after feeding. The measurement was continued for 2 hours after the administration of test compounds.\nThe number of dogs showing Giant Migrating Contraction (GMC) and defecation within 2 hours after the administration of a test compound is indicated in Table 4."}, "[3]": {"tested_on": "mice of Std-ddY strain", "experiment": "Assay on defecation in mice", "assay_type": "in vivo", "design": "key: −: Inactive; +: Moderately stimulated (P < 0.05); ++: Markedly stimulated (p < 0.01)", "settings": "fecal pellet weight vs control, Dunnett's test", "procedure": "Male mice of Std-ddY strain weighing 25-30 g were used. Free access to food and water was allowed up to the beginning of the procedure. The mice (each group: five mice) were placed in a mesh bottom cage for fasting, and they were allowed for acclimation to the new environment for about one hour prior to the start of the experiment. A test compound, which was previously suspended in a 0.5% tragacanth solution, was administered orally to the mice. The fecal pellets were collected at 30, 60 and 120 minutes after the treatment of a test compound, and weighed. The statistical judgment of efficacy was carried out between the control group (treated with a 0.5% tragacanth solution) and the test compound-treated group, and determined by Dunnett's test."}, "[4]": {"biological_target": "T1, Dopamine D2 receptor (Rattus norvegicus, UniProt P61169)", "T1 construct": "Crude synaptosome membrane fractions from rat brain was used as a receptor membrane fraction; from tissue; host or cells: rat brain crude synaptosome membrane fraction", "T1 sequence (P61169 whole entry)": "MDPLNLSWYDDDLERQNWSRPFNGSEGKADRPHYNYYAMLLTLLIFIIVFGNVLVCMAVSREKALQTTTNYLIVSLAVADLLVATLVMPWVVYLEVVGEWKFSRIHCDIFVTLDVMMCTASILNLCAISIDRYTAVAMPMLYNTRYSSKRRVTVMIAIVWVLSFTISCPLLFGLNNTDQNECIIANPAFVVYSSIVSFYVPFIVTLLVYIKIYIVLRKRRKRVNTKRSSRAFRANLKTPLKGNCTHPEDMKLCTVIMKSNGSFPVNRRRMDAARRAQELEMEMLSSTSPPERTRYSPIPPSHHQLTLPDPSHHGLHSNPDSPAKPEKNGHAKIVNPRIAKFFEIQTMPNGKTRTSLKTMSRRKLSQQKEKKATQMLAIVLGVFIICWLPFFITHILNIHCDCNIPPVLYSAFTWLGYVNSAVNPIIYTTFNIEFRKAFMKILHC", "experiment": "Dopamine D2 receptor binding assay ([3H]spiperone)", "settings": "rat brain crude synaptosome membrane fractions", "procedure": "Dopamine D2 receptor binding assay and the preparation of receptor membrane fractions therefor were carried out according to a modified method of the method of Creese, I. et al., Eur. J. Pharmacol., 46, 337 (1977) and Peroutka, S. J. and Hamik, A., Eur. J. Pharmacol., 148, 297 (1988).\nCrude synaptosome membrane fractions from rat brain was used as a receptor membrane fraction, and [^3H]spiperone (D2) was used as a labeled ligand. A buffer (final volume: 1 ml) containing a receptor membrane fraction and a labelled ligand therefor was incubated for a prescribed period in the presence of a test compound in various concentrations, and the radioactive ligand binding to the receptor was separated on the filter paper using a cell harvester (manufactured by Brandel). The radioactivity on the filter was determined by a liquid scintillation counter, and the total binding of the ligand to the receptor was determined. On the other hand, the non-specific binding was determined in the presence of an excess amount of non-labeled ligand (spiperone (D2)), and the specific binding was obtained by subtracting the non-specific binding from the total binding."}, "[5]": {"biological_target": "T2, Serotonin 4 (5-HT4) receptor (Cavia porcellus, UniProt O70528)", "T2 construct": "from tissue; host or cells: guinea pig (Std-Hartley) brain striatum membrane fraction", "T2 sequence (O70528 whole entry)": "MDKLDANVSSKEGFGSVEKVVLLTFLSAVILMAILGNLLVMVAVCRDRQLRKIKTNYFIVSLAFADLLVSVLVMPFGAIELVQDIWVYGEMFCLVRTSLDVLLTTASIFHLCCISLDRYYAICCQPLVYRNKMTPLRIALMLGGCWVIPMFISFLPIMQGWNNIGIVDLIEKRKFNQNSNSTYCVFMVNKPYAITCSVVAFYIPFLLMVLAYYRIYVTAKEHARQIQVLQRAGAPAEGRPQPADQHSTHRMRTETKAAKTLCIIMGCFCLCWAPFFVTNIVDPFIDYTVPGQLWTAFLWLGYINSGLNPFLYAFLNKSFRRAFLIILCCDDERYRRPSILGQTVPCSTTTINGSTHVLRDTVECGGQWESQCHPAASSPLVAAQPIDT", "experiment": "Serotonin 4 (5-HT4) receptor binding assay ([3H]-GR113808)", "settings": "guinea pig striatum membrane fractions, 0.1 nM [3H]-GR113808", "text": "Std-Hartley guinea pigs weighing 300-400 g were decapitated, and the brain thereof was immediately taken out, and the striatum was dissected.\nPrior to the filtration, the filter to be used was presoaked in a 0.1% solution of polyethylenimine for one hour."}, "[6]": {"experiment": "Acute toxicity", "settings": "male, Std-ddY, mouse, in vivo; mice, intravenous, observed for 7 days", "text": "Male mice of Std-ddY strain weighing 25-30 g were used in a group of 5 or more animals. A test compound was suspended in physiological saline solution or a 1% lactose solution and administered intravenously to the mice."}}, "note": "Counter-ions that a name gives are not always drawn."}
{"smiles": "COc1cc(N)c(Cl)cc1C(=O)NC1CCN(CC2CCN(C(=O)C3CCOCC3)CC2)CC1", "note": "(as salt: fumarate) (hydrate or solvate) [Compound A, 4-amino-5-chloro-2-methoxy-N-[1-[1-(4-tetrahydropyranylcarbonyl)-4-piperidinylmethyl]-4-piperidinyl]benzamide.fumarate.1/4 hydrate]", "values": [{"measurement": "melting point", "result": "235 to 237", "unit": "°C"}]}
{"smiles": "COc1cc(N)c(Cl)cc1C(=O)NC1CCN(CC2CCN(C(=O)c3ccco3)CC2)CC1", "note": "(as salt: fumarate) (hydrate or solvate) [Compound B, 4-amino-5-chloro-N-[1-[1-(2-furoyl)-4-piperidinyl-methyl]-4-piperidinyl]-2-methoxybenzamide.fumarate.1/2 hydrate]", "values": [{"measurement": "melting point", "result": "179 to 181", "unit": "°C"}]}
{"smiles": "COc1cc(N)c(Cl)cc1C(=O)N[C@H]1CCN(CCCOc2ccc(F)cc2)C[C@H]1OC", "note": "(relative stereo) [Cisapride, cis-4-amino-5-chloro-N-[1-[3-(4-fluorophenoxy)propyl]-3-methoxy-4-piperidinyl]-2-methoxybenzamide]", "values": [{"measurement": "ED5%, iv (dose required to prolong the QTc intervals by 5%)", "setting": "[1]", "result": 0.3, "unit": "mg/kg"}, {"measurement": "Number of dogs which showed defecation/total number of dogs to be tested", "setting": "[2]; 10 mg/kg intragastric", "result": "1/7"}, {"measurement": "Number to dogs which showed GMC/total number of dogs to be tested", "setting": "[2]; 10 mg/kg intragastric", "result": "1/7"}, {"measurement": "Effect (defecation in mice)", "setting": "[3]; 3.0 mg/kg oral", "result": "−"}, {"measurement": "Effect (defecation in mice)", "setting": "[3]; 30 mg/kg oral", "result": "−"}]}
{"smiles": "COc1cc(N)c(Cl)cc1C(=O)NC1CCN(CC2CCN(C(=O)[C@@H]3CCCO3)CC2)CC1", "note": "[Compound 2, (S)-4-amino-5-chloro-2-methoxy-N-[1-[1-(2-tetrahydrofurylcarbonyl)-4-piperidinylmethyl]-4-piperidinyl]benzamide.fumarate]", "values": [{"measurement": "ED5%, iv (dose required to prolong the QTc intervals by 5%)", "setting": "[1]", "result": 24.9, "unit": "mg/kg"}, {"measurement": "IC50", "setting": "[4]", "result": "> 10000", "unit": "nM"}, {"measurement": "IC50", "setting": "[5]", "result": 13.5, "unit": "nM"}, {"measurement": "LD50 at 7 days", "setting": "[6]", "result": "> 200", "unit": "mg/kg"}, {"measurement": "Number of dogs which showed defecation/total number of dogs to be tested", "setting": "[2]; 0.03 mg/kg intragastric", "result": "1/4"}, {"measurement": "Number to dogs which showed GMC/total number of dogs to be tested", "setting": "[2]; 0.03 mg/kg intragastric", "result": "1/4"}, {"measurement": "Number of dogs which showed defecation/total number of dogs to be tested", "setting": "[2]; 0.1 mg/kg intragastric", "result": "2/5"}, {"measurement": "Number to dogs which showed GMC/total number of dogs to be tested", "setting": "[2]; 0.1 mg/kg intragastric", "result": "3/5"}, {"measurement": "Number of dogs which showed defecation/total number of dogs to be tested", "setting": "[2]; 0.3 mg/kg intragastric", "result": "3/5"}, {"measurement": "Number to dogs which showed GMC/total number of dogs to be tested", "setting": "[2]; 0.3 mg/kg intragastric", "result": "4/5"}, {"measurement": "Effect (defecation in mice)", "setting": "[3]; 1.0 mg/kg oral", "result": "++"}, {"measurement": "Effect (defecation in mice)", "setting": "[3]; 3.0 mg/kg oral", "result": "++"}]}
{"smiles": "COc1cc(N)c(Cl)cc1C(=O)NC1CCN(CC2CCN(C(=O)C3CCOCC3)CC2)CC1", "note": "[Compound A, 4-amino-5-chloro-2-methoxy-N-[1-[1-(4-tetrahydropyranylcarbonyl)-4-piperidinylmethyl]-4-piperidinyl]benzamide.fumarate.1/4 hydrate]", "values": [{"measurement": "ED5%, iv (dose required to prolong the QTc intervals by 5%)", "setting": "[1]", "result": 16.9, "unit": "mg/kg"}, {"measurement": "Effect (defecation in mice)", "setting": "[3]; 1.0 mg/kg oral", "result": "−"}, {"measurement": "Effect (defecation in mice)", "setting": "[3]; 3.0 mg/kg oral", "result": "−"}, {"measurement": "Effect (defecation in mice)", "setting": "[3]; 10 mg/kg oral", "result": "++"}]}
{"smiles": "COc1cc(N)c(Cl)cc1C(=O)NC1CCN(CC2CCN(C(=O)c3ccco3)CC2)CC1", "note": "[Compound B, 4-amino-5-chloro-N-[1-[1-(2-furoyl)-4-piperidinyl-methyl]-4-piperidinyl]-2-methoxybenzamide.fumarate.1/2 hydrate]", "values": [{"measurement": "ED5%, iv (dose required to prolong the QTc intervals by 5%)", "setting": "[1]", "result": 3.2, "unit": "mg/kg"}, {"measurement": "Effect (defecation in mice)", "setting": "[3]; 1.0 mg/kg oral", "result": "+"}, {"measurement": "Effect (defecation in mice)", "setting": "[3]; 3.0 mg/kg oral", "result": "+"}, {"measurement": "Effect (defecation in mice)", "setting": "[3]; 10 mg/kg oral", "result": "++"}]}
{"smiles": "COc1cc(N)c(Cl)cc1C(=O)NC1CCN(CC2CCN(C(=O)C3CCOC3)CC2)CC1.O=C(O)/C=C/C(=O)O", "note": "(stereo not shown) [Compound C, 4-amino-5-chloro-2-methoxy-N-[1-[1-(3-tetrahydrofurylcarbonyl)-4-piperidinyl-methyl]-4-piperidinyl]benzamide.fumarate]", "values": [{"measurement": "ED5%, iv (dose required to prolong the QTc intervals by 5%)", "setting": "[1]", "result": 9.4, "unit": "mg/kg"}, {"measurement": "Effect (defecation in mice)", "setting": "[3]; 1.0 mg/kg oral", "result": "+"}, {"measurement": "Effect (defecation in mice)", "setting": "[3]; 3.0 mg/kg oral", "result": "++"}]}
{"smiles": "COc1cc(N)c(Cl)cc1C(=O)NC1CCN(CC2CCN(C(=O)[C@H]3CCCO3)CC2)CC1", "note": "[Compound R, (R)-4-amino-5-chloro-2-methoxy-N-[1-[1-(2-tetrahydrofurylcarbonyl)-4-piperidinyl-methyl]-4-piperidinyl]benzamide.fumarate]", "values": [{"measurement": "ED5%, iv (dose required to prolong the QTc intervals by 5%)", "setting": "[1]", "result": 17.4, "unit": "mg/kg"}, {"measurement": "IC50", "setting": "[4]", "result": 948, "unit": "nM"}, {"measurement": "Effect (defecation in mice)", "setting": "[3]; 1.0 mg/kg oral", "result": "++"}, {"measurement": "Effect (defecation in mice)", "setting": "[3]; 3.0 mg/kg oral", "result": "++"}]}
